According to US10251894B2, “Anticonvulsant activity of steroids” (The Regents of the University of California, priority 2012, dated 2019):

Columns and labels:
[1] = test system: PTZ (80 mg/kg, i.p.) seizures; assay: Pentylenetetrazol (PTZ) seizure test; type: in vivo, mouse; conditions: mice
Procedure: (§1) The mouse 6 Hz and pentylenetetrazol seizure models were used. Solutions of 5α,3α-P were made in 6% (0.5 and 1.5 mg/ml) sulfobutylether-β-cyclodextrin sodium salt (Captisol®) in 0.9% saline. The solutions were injected i.v. or i.m. (1, 2 and 30 min or 2 and 30 min, respectively) prior to administration of the 6 Hz electrical stimulus or PTZ (80 mg/kg, i.p.). […] Anticonvulsant activity was assessed by the delay in onset of seizure signs. Allopregnanolone plasma levels in rats were determined by LC-MS.
(§2) Animals. Male NIH Swiss mice (22-30 g) served as subjects, and all procedures used in these studies were conducted in accordance with the University of California, Davis, Institutional Animal Care and Use Committee the Animal Care and Use policies in strict compliance with the Guide for the Care and Use of Laboratory Animals of the National Research Council (National Academy Press, Washington, D.C.; on the internet at nap.edu/readingroom/books/labrats/).
(§3) Test Substances and Drug Administration. Allopregnanolone (3α-hydroxy-5α-pregnan-20-one; 5α,3α-P) was synthesized by a SAFC Pharma Inc, Madison, Wis., USA and Captisol (sulfobutylether-beta-cyclodextrin sodium salt) was provided by Ligand Pharmaceuticals, Inc. La Jolla, Calif., USA. Solutions of 5α,3α-P were made in 6% (0.5 and 1.5 mg/ml) or 24% ([…]) sulfobutylether-β-cyclodextrin sodium salt (Captisol®) in 0.9% saline. The volumes used for all injections were 10-20 ml/kg of body weight. In order to establish time courses for protection by 5α,3α-P in the 6-Hz electrical-stimulation (32 mA, 3 s) model, 5α,3α-P (0.5-6 mg/kg) was administered intravenously (i.v.), intramuscularly (i.m.), subcutaneously (s.c.) or orally (p.o.) before electrical stimulation. In the PTZ seizure test, 5α,3α-P or vehicle were administered i.v. or i.m. 1, 2 or 30 min before PTZ.
The time of onset of myoclonic jerks, clonus and tonic extension was recorded.
Data Analysis. Results are expressed as mean±S.E.M.; the significance of the difference in the responses of treatment groups with respect to control is based on one-way analysis of variance (ANOVA) followed by specific post hoc comparisons using Dunnett's test. Differences were considered statistically significant when the probability of error was less than 0.05 (p<0.05).

[2] = Plasma allopregnanolone after single i.v. injection (LC-MS); type: in vivo, rat; conditions: rats
Procedure: FIG. 10 illustrates a Time—concentration profile for plasma allopregnanolone (5α,3α-P) after single i.v. injection in rats. Rats bearing indwelling jugular catheters received single i.v. injection of 5α,3α-P or vehicle and serial blood samples were withdrawn at 1, 2, 10,15, 30, 60 and 120 min after injection. Plasma was assayed for 5α,3α-P by LC-MS. Each point represents at least 4 animals.
as §1
Surgery and Blood Collection. Male rats were implanted with indwelling jugular catheters as described (Baumann, et al., J Neurosci. (1998) 18: 9069-77). Animals were allowed to recover for at least one week. Experiments were carried out while the animal resided in its home cage. Rats received i.v. injection of vehicle or 5α,3α-P and serial blood samples were withdrawn into chilled tubes at 1, 2, 10,15, 30, 60 and 120 min after i.v. injection. 5α,3α-P and D4-5α,3α-P (internal standard) were extracted with SPE method from rat's plasma. The extracted 5α,3α-P and D4-5α,3α-P were quantified with ultra-performance liquid chromatography (UPLC)/Atmospheric-pressure chemical ionization (APCI)/tandem mass spectrometry (MS/MS).

[3] = test system: 6 Hz electrical stimulus seizures; assay: 6-Hz seizure test (6-Hz electrical-stimulation, 32 mA, 3 s, model); type: in vivo, mouse; conditions: mice
Procedure: as §1, §2, §3
6-Hz Seizure Test (Kaminski, et al., Epilepsia (2004) 45:1-4): 3-s corneal stimulation (200-μs duration, 32-mA monopolar rectangular pulses at 6 Hz) was delivered by a constant-current device (ECT Unit 5780; Ugo Basile, Comerio, Italy). […] The experimental end point was protection against the seizure: an animal was considered to be protected if it resumed its normal exploratory behavior within 10 s of stimulation.

[4] = 0.5 mg/kg i.v. 1 min before PTZ
[5] = i.v. bolus, 0.5 and 1.0 mg/kg pooled

CC(=O)[C@H]1CC[C@H]2[C@@H]3CC[C@H]4C[C@H](O)CC[C@]4(C)[C@H]3CC[C@]12C [5α,3α-P, 3α-hydroxy-5α-pregnan-20-one]
delay of seizure onset in the PTZ model ([1]; 0.1 mg/kg i.v., all pretreatment times (1, 2 and 30 min)): failed to significantly delay seizure onset | animals protected from tonic seizures ([1]; 0.25 mg/kg i.m. 2 min before PTZ): 0% | animals protected from tonic seizures ([1]; 0.5 mg/kg i.m. 2 min before PTZ): 50% | animals in which tonic seizures and mortality were prevented [1, 4]: 62.5% | delay for myoclonic jerks and clonic seizures [1, 4]: marked delay | animals in which tonic seizures were prevented ([1]; 0.5 mg/kg i.v. 2 min before PTZ): 25% | animals protected from tonic seizures ([1]; 1.5 mg/kg i.m. 2 min before PTZ): 100% | protection against tonic seizures ([1]; 1.5 mg/kg i.m. 30 min before PTZ): significant protection | prevention of tonic seizures and mortality ([1]; 1.5 mg/kg i.v. 1 and 2 min before PTZ): completely prevented | protection against tonic seizures ([1]; 1.5 mg/kg i.v. 30 min before PTZ): inactive | mean peak plasma level (2 min) ([2]; i.v. bolus 0.5 mg/kg): 337 ng/mL | mean peak plasma level (2 min) ([2]; i.v. bolus 1.0 mg/kg): 746 ng/mL | pooled mean halftime, first component [2, 5]: 2 min | pooled mean halftime, second component [2, 5]: 22 min | duration of protective activity in the 6 Hz test ([3]; i.m. 3 mg/kg): < 2 h | onset of protective activity in the 6 Hz test ([3]; i.m. 3 mg/kg): ≤ 2 min | protective activity in the 6 Hz test at 30 min ([3]; i.v. 1.5 mg/kg, 30 min after infusion): inactive | time after injection with protective activity in the 6 Hz test ([3]; i.v. infusion 1.5 mg/kg): 1 to 15 min | bioavailability after oral administration ([3]; p.o. in the 6-Hz model, inferred from time course): Low bioavailability
